According to patent US20060293360A1, “4-(2-Phenyloxyphenyl)-piperidine or-1,2,3,6-tetrahydropyridine derivatives as serotonin reuptake inhibitors” (H. Lundbeck A/S, priority 2003, published 2006):

Experiments:
[1] = biological target: T1, norepinephrine uptake ([3H]-noradrenaline uptake into rat cortical synaptosomes) (Rattus norvegicus, UniProt Q9WTR4); assay: [3H]Noradrenaline uptake into rat cortical synaptosomes; format: biochemical; settings: result in words
T1 construct: Fresh cortex from male Wistar rats (125-225 g) are homogenized in 0.4M sucrose; from tissue; host or cells: synaptosomal fraction of fresh cortex from male Wistar rats
T1 sequence (Q9WTR4 1-597): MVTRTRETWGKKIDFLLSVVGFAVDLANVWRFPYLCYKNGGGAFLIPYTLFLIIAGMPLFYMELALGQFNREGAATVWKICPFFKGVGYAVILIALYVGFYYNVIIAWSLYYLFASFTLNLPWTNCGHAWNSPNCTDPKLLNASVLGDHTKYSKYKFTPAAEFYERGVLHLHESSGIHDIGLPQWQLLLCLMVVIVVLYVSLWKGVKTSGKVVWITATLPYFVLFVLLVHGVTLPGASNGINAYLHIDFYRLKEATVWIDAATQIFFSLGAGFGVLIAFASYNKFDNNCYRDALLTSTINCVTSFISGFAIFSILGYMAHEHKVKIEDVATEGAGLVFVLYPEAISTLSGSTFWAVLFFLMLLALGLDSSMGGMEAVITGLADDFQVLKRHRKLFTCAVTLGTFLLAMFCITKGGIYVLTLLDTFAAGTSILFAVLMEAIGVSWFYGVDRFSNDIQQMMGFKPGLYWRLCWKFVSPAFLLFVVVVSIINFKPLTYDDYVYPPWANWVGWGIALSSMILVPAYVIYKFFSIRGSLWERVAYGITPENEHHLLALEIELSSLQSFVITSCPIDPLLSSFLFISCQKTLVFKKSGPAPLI
Procedure: Measurements of [^3 H]Noradrenaline Uptake into Rat Cortical Synaptosomes.
Fresh cortex from male Wistar rats (125-225 g) are homogenized in 0.4M sucrose with a glass/teflon homogenizer. The homogenate is centrifuged at 600×g for 10 min at 4° C. The pellet is discarded and the supernatant is centrifuged at 20.000×g for 55 min. The final pellet is homogenized (20 sec) in this assay buffer (6 mg original tissue/mL=[…]). Test compounds (or buffer) and 10 nM [^3H]-noradrenaline are added to deep 96 well plates and shaken briefly. Composition of assay buffer: 123 mM NaCl, 4.82 mM 1Cl, 0.973 mM CaCl2, 1.12 mM MgSO4, 12.66 MM Na2HPO4, 2.97 MM NaH2PO4, 0.162 mM EDTA, 10 mM glucose and 1 mM ascorbic acid. Buffer is oxygenated with 95% 02/5% C02 for 10 min at 37° C. and pH is adjusted 7.4. The incubation is started by adding tissue to a final assay volume of 1 ml. After 15 min incubation with radioligand at 37° C., samples are filtered directly on Unifilter GF/C glass fiber filters (soaked for 1 hour in 0.1% polyethylenimie) under vacuum and immediately washed with 3×1 mL assay buffer. Non-specific uptake is determined using talsupram ([…] final concentration). Duloxetine is included as reference in all experiments as dose-response curve.

[2] = biological target: T2, serotonin reuptake ([3H]-5-HT uptake into rat cortical synaptosomes) (Rattus norvegicus, UniProt P31652); assay: [3H]-5-HT uptake into rat cortical synaptosomes; format: biochemical; settings: result in words
T2 construct: Whole brains from male Wistar rats (125-225 g), excluding cerebellum, are homogenized; from tissue; host or cells: synaptosomal fraction of whole brain (excluding cerebellum) from male Wistar rats
T2 sequence (P31652 whole entry): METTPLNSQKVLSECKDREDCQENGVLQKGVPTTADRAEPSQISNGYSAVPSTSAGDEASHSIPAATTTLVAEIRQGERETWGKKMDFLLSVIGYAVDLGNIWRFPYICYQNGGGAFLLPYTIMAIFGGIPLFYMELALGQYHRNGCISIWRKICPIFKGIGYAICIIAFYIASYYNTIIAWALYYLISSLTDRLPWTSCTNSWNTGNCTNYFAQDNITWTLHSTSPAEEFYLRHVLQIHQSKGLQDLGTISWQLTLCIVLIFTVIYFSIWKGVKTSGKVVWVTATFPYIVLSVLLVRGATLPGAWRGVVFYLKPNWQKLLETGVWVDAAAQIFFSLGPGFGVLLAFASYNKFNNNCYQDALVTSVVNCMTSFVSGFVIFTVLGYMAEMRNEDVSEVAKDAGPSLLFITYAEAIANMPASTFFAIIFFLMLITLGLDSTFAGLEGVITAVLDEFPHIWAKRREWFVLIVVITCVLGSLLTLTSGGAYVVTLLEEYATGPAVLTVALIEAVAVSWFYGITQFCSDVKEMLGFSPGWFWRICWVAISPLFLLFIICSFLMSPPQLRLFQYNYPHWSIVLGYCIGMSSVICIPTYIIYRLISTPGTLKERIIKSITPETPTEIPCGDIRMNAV
Procedure: Measurements of [^3H]-5-HT Uptake into Rat Cortical Synaptosomes.
Whole brains from male Wistar rats (125-225 g), excluding cerebellum, are homogenized in 0.32 M sucrose supplemented with 1 mM nialamid with a glass/teflon homogenizer. The homogenate is centrifuged at 600×g for 10 min at 4° C. The pellet is discarded and the supernatant is centrifuged at 20.000×g for 55 min. The final pellet is homogenized (20 sec) in this assay buffer (0.5 mg original tissue/well). Test compounds (or buffer) and 10 nM [^3H]-5-HT are added to 96 well plates and shaken briefly. 10 Composition of assay buffer: 123 mM NaCl, 4.82 mM KCl, 0.973 mM CaCl2, 1.12 mM MgSO4, 12.66 mM Na2HPO4, 2.97 mM NaH2PO4, 0.162 mM EDTA, 10 mM glucose and 1 mM ascorbic acid. Buffer is oxygenated with 95% 02/5% C02 for 10 min at 37° C. and pH is adjusted 7.4. The incubation is started by adding tissue to a final assay volume of 0.2 mL. After 15 min incubation with radioligand at 37° C., samples are filtered 15 directly on Unifilter GF/C glass fiber filters (soaked for 1 hour in 0.1% polyethylenimine) under vacuum and immediately washed with 3×0.2 ml assay buffer. Non-specific uptake is determined using citalopram (10 μM final concentration). Citalopram is included as reference in all experiments as dose-response curve.

Structure (SMILES) | norepinephrine uptake inhibition [1] | serotonin reuptake inhibition [2]
Cc1cc(Oc2ccccc2C2CCNCC2)c(C)c(C)c1C [3i, 4-[2-(2,3,4,5-Tetramethyl-phenoxy)-phenyl]-piperidine] | did not show norepinephrine uptake inhibition | did show serotonin reuptake inhibition
Cc1cc(F)ccc1Oc1ccccc1C1=CCNCC1 [1c, 4-[2-(4-Fluoro-2-methylphenoxy)phenyl]-1,2,3,6-tetrahydropyridine] | did not show norepinephrine uptake inhibition | did show serotonin reuptake inhibition
Cc1ccc(Oc2ccccc2C2=CCNCC2)c(C)c1 [1a, 4-[2-(2,4-Dimethylphenoxy)phenyl]-1,2,3,6-tetrahydropyridine] | did not show norepinephrine uptake inhibition | did show serotonin reuptake inhibition
COc1ccc(Oc2ccccc2C2CCNCC2)cc1OC [3m, 4-[2-(3,4-Dimethoxy-phenoxy)-phenyl]-piperidine] | did not show norepinephrine uptake inhibition | did show serotonin reuptake inhibition
Cc1ccc(Oc2ccccc2C2CCNCC2)cc1C [3h, 4-[2-(3,4-Dimethyl-phenoxy)-phenyl]-piperidine] | did not show norepinephrine uptake inhibition | did show serotonin reuptake inhibition
COc1ccc(Oc2ccccc2C2=CCNCC2)cc1 [1f, 4-[2-(4-Methoxyphenoxy)phenyl]-1,2,3,6-tetrahydropyridine] | did not show norepinephrine uptake inhibition | did show serotonin reuptake inhibition
Fc1ccc(Oc2ccccc2C2=CCNCC2)cc1 [1d, 4-[2-(4-Fluorophenoxy)phenyl]-1,2,3,6-tetrahydropyridine] | did not show norepinephrine uptake inhibition | did show serotonin reuptake inhibition
Clc1ccc(Oc2ccccc2C2=CCNCC2)cc1 [1b, 4-[2-(4-Chlorophenoxy)phenyl]-1,2,3,6-tetrahydropyridine] | did not show norepinephrine uptake inhibition | did show serotonin reuptake inhibition
Cc1ccc(Oc2ccccc2C2=CCNCC2)cc1 [1e, 4-[2-(4-Methylphenoxy)phenyl]-1,2,3,6-tetrahydropyridine] | did not show norepinephrine uptake inhibition | did show serotonin reuptake inhibition
